{
  "source": "patent US8785425B2",
  "about": "“11β-hydroxyandrosta-4-ene-3-ones” (Sun Pharma Advanced Research Company Ltd., priority 2006, dated 2014)",
  "key": {"[1]": {"tested_on": "cotton pellet granuloma (blank cotton pellet)", "assay": "Assessment of systemic activity by i.v. route (blank cotton pellet granuloma)", "format": "in vivo", "details": "dose 1600 mcg (for 3 days), male SD rats", "description": "For assessing systemic side effect on i.v. administration, cotton pellet granuloma assay (blank cotton pellet) in male SD rats was undertaken. Sterilized cotton pellets weighing 20 mg were surgically implanted into the scapular region on both sides. Starting from next day of implantation, compounds dissolved in Pharmasove (Pharmasolve 66.67% in saline) or vehicle were administered intravenously at 1.6 mg/kg dose for 3 successive days. On fifth day of implantation, pellets along with granuloma were taken out. The thymus gland was also separated from each animal and weighed. The pellets with granuloma were dried for 20 hrs at 60° C. and weighed. Mean weights of dry granuloma and thymus and body weight gain/100 g body weights were compared with vehicle control groups."}, "glucocorticoid receptors": {"target": "T1, glucocorticoid receptors (Homo sapiens, UniProt P04150)", "T1 construct": "host or cells: Human HeLa cells", "T1 sequence (P04150 1-777)": "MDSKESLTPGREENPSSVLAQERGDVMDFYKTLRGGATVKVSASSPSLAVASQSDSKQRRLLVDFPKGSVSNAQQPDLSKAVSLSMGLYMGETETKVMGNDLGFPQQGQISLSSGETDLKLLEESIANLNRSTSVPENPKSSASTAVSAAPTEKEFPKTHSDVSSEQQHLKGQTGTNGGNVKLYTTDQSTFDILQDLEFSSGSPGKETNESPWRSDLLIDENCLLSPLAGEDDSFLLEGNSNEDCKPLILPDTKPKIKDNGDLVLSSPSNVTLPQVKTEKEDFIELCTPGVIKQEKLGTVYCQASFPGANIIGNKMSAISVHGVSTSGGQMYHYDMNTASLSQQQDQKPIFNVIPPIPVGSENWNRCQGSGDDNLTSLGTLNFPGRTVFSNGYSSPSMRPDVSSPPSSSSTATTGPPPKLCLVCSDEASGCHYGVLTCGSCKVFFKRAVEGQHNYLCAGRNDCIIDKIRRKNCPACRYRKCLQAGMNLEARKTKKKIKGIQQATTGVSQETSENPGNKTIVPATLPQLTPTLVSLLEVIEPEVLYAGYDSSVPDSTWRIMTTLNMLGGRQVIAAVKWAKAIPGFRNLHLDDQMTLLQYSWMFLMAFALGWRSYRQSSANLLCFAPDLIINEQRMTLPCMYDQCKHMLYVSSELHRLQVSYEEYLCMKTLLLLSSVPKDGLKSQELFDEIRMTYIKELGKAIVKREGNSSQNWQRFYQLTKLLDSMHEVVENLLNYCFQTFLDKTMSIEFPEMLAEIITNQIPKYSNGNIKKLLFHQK", "assay": "Glucocorticoid receptor binding assay ([3H]dexamethasone radioligand)", "details": "HeLa cells transfected with glucocorticoid receptors; for inhibition at 0.1 µM: % inhibition at 100 nM", "description": "The steroid receptor binding assay were performed by MDS Pharma Services at their Taipei (Taiwan) pharmacology laboratory.\nThe activity of test compounds on glucocorticoid receptor was assessed using radioligand binding assays. […] Free [^3H]dexamethasone was removed from the medium by centrifugation and concentration of receptor bound ligand was determined in the supernatant by liquid scintillation counting.\nThe % inhibition was evaluated using a single concentration of test compound and the corresponding radiolabeled ligand. Results are presented as the percent inhibition of specific binding. The values are average of duplicate determinations for each concentration."}, "[2]": {"tested_on": "cotton pellet induced granuloma", "assay": "Cotton pellet granuloma (compound impregnated in pellet)", "format": "in vivo", "details": "dose 1000 mcg per pellet, SD rats", "description": "SD rats were used for assessing anti-inflammatory activity of test compound using cotton pellet granuloma method. Sterilized cotton pellets weighing 20 mg were prepared. Test compounds were dissolved in acetone so as to get the required quantity for each cotton pellet in 500 μl. Different pellets were impregnated with 500 μl of acetone to contain required quantity of test compounds and allowed to dry. Vehicle control pellets were impregnated with 500 μl acetone. Rats were made into different groups. Two cotton pellets were surgically implanted into the scapular region of each rat. On sixth day of such implantation, pellets along with granuloma were taken out. Thymus gland was also separated from each animal and weighed. The pellets with granuloma were dried for 20 hrs at 60° C. and weighed. Mean weights of dry granuloma and thymus, body weight gain/100 g body weights were calculated."}, "[3]": {"tested_on": "croton oil induced ear edema", "assay": "Croton oil ear edema", "format": "in vivo, Mice (male, CD-1)", "details": "inhibition at 1.6 μg, applied to ear, mice", "description": "Mice (male, CD-1) were made into different groups. Test compounds were dissolved in pyridine-water-acetone (4:2:14) solution […] of compound or vehicle solution was applied to the left ear of the mice. The right ear of each mouse was applied simultaneously with 10 μl of pyridine:water:acetone (4:2:14) solution. After 2 hrs of compound or vehicle application, 10 μl of croton oil solution was applied to the left ear of all animals. After 6 hr of croton oil treatment the animals were sacrificed; ears were excised and weighed separately."}, "[4]": {"tested_on": "liver glycogen deposition", "format": "in vivo, Male Sprague Dawley rats", "details": "3 mg/kg intratracheally, 2 doses 24 hrs apart, adrenalectomized rats", "description": "Male Sprague Dawley rats, weighing 190-220 g were bilaterally adrenalectomized and maintained on 0.9% saline solution throughout the experiment. On day 5th and 6th of adrenalectomy, animals were made into different groups, test compounds prepared in cold saline (sonicated for 30 min) were instilled intratracheally 2 doses@3 mg/kg, 24 hrs apart. At 15 hrs after the last treatment, animals were sacrificed and livers were excised and weighed. The glycogen content of the livers was determined by anthrone method. Briefly, a weighed quantity of liver tissue was homogenized with 5% trichloroacetic acid, supernatant mixed with ethanol and kept overnight for precipitation. The glycogen thus extracted was estimated as glucose generated after acid hydrolysis by addition of anthrone reagent at 620 nm. Glycogen content was expressed as mg/100 g liver."}, "in vivo": {"assay": "in vivo", "details": "SD, rat, thymus, other: intratracheal", "description": "(§1) Sephadex G-200 was prepared in sterile saline (10 mg/ml) and allowed to swell for at least 3 days at room temperature. Test compounds were prepared as suspensions by grinding and sonicating the solid in chilled saline. All the compounds were administered intratracheally at 24 hrs and 2 hrs prior to intratracheal administration of Sephadex (5 mg/kg) under light ether anesthesia. Vehicle control animals were administered vehicle instead of Sephadex. At 24 hr after Sephadex instillation, lung and thymus were excised from individual animals and weighed. Wet weight of lung and thymus was corrected for 100 g of initial body weight. The percentage increase in lung weight caused by Sephadex and its inhibitions by the compounds, were calculated. The percentage inhibitions of thymus compared to vehicle control group were also calculated."}, "[5]": {"tested_on": "Sephadex induced lung edema", "assay": "animal or person", "description": "as §1"}, "[6]": {"details": "dose 3000 mcg/kg intratracheally, SD rat"}},
  "note": "Marks after values point to notes of the source that are not given here.",
  "data": [
    {"molecule": "C[C@@H]1CC2C3C[C@H](F)C4=CC(=O)C=C[C@]4(C)[C@@]3(F)[C@@H](O)C[C@]2(C)[C@@]1(OC(=O)c1ccco1)C(=O)SOCc1ccc(F)cc1", "note": "(stereo partly drawn) [IC.5, 6α,9α-Difluoro-17α-[(2-furanylcarbonyl)oxy]-11β-hydroxy-16α-methyl-3-oxoandrosta-1,4-diene-17β-carbonylsulfenic acid (4-fluorophenyl)methyl ester]", "values": [
      {"measurement": "Mean Inhibition of Granuloma (%)", "setting": "[1]", "result": "−22.20", "unit": "%"},
      {"measurement": "inhibition at 0.1 µM", "setting": "glucocorticoid receptors", "result": 75, "unit": "%"}
    ]},
    {"molecule": "C[C@@H]1C[C@H]2[C@@H]3CCC4=CC(=O)C=C[C@]4(C)[C@@]3(F)[C@@H](O)C[C@]2(C)[C@@]1(O)C(=O)CO", "note": "[Dexamethasone, 16α-methyl-9α-fluoro-1,4-pregnadiene-11β,17α,21-triol-3,20-dione, reference compound]", "values": [
      {"measurement": "Mean % Inhibition of Granuloma", "setting": "[2]", "result": 44.73, "unit": "%"},
      {"measurement": "Thymus wt. (% Decrease)", "setting": "[2]", "result": 68.66, "unit": "%"},
      {"measurement": "Mean % Inhibition (croton oil ear edema)", "setting": "[3]", "result": "50.05^a %"}
    ]},
    {"molecule": "CCCC1O[C@@H]2C[C@H]3[C@@H]4CCC5=CC(=O)C=C[C@]5(C)[C@H]4[C@@H](O)C[C@]3(C)[C@]2(C(=O)CO)O1", "note": "(stereo partly drawn) [Budesonide, (11β,16α)-16,17-[Butylidenebis(oxy)]-11,21-dihydroxypregna-1,4-diene-3,20-dione]", "values": [
      {"measurement": "% Inhibition of thymus", "setting": "[4]", "result": 65.02, "unit": "%"},
      {"measurement": "Glycogen content", "setting": "[4]", "result": 552.77, "unit": "mg/100 g liver"},
      {"measurement": "ED50 at 24 h", "setting": "in vivo", "result": 0.68, "unit": "mg/kg"},
      {"measurement": "ED50", "setting": "[5]; Rattus norvegicus, inhaled or nasal, read-out: ED50 Lung edema", "result": 0.101, "unit": "mg/kg"},
      {"measurement": "Mean % inhibition Lung edema", "setting": "[5]; [6]", "result": 119.38, "unit": "%"},
      {"measurement": "Mean % inhibition Thymus", "setting": "[5]; [6]", "result": 67.08, "unit": "%"},
      {"measurement": "inhibition at 0.01 µM", "setting": "glucocorticoid receptors; % inhibition at 10 nM", "result": 85, "unit": "%"}
    ]},
    {"molecule": "CCC(=O)O[C@]1(C(=O)SCF)[C@H](C)C[C@H]2[C@@H]3C[C@H](F)C4=CC(=O)C=C[C@]4(C)[C@@]3(F)[C@@H](O)C[C@@]21C", "note": "[Fluticasone propionate, (S)-fluoromethyl 6α,9α-difluoro-11β-hydroxy-16α-methyl-17α-propionyloxy-3-oxoandrosta-1,4-diene-17β-carbothioate, reference compound]", "values": [
      {"measurement": "% Inhibition of thymus", "setting": "[4]", "result": 70.17, "unit": "%"},
      {"measurement": "Glycogen content", "setting": "[4]", "result": 1514.65, "unit": "mg/100 g liver"},
      {"measurement": "Mean Inhibition of Granuloma (%)", "setting": "[1]", "result": 55.62, "unit": "%"},
      {"measurement": "Mean Thymus wt. Decrease (%)", "setting": "[1]", "result": 75.71, "unit": "%"},
      {"measurement": "ED50 Lung edema", "setting": "[5]; i.t., Sephadex lung edema model in SD rat", "result": 0.086, "unit": "mg/kg"},
      {"measurement": "ED50 Thymus", "setting": "[5]; i.t., thymus involution, Sephadex lung edema model in SD rat", "result": 0.36, "unit": "mg/kg"},
      {"measurement": "Mean % Inhibition of Granuloma", "setting": "[2]", "result": 75.03, "unit": "%"},
      {"measurement": "Thymus wt. (% Decrease)", "setting": "[2]", "result": 82.36, "unit": "%"},
      {"measurement": "Mean % Inhibition (croton oil ear edema)", "setting": "[3]", "result": "81.09^a %"}
    ]},
    {"molecule": "CCC(=O)O[C@]1(C(=O)SOCF)[C@H](C)CC2C3C[C@H](F)C4=CC(=O)C=C[C@]4(C)[C@@]3(F)[C@@H](O)C[C@@]21C", "note": "(stereo partly drawn) [IC.3, 6α,9α-Difluoro-11β-hydroxy-16α-methyl-3-oxo-17α-propionyloxyandrosta-1,4-diene-17β-carbonylsulfenic acid fluoromethyl ester]", "values": [
      {"measurement": "Glycogen content", "setting": "[4]", "result": "−11.34", "unit": "mg/100 g liver"},
      {"measurement": "Mean Inhibition of Granuloma (%)", "setting": "[1]", "result": 12.09, "unit": "%"},
      {"measurement": "inhibition at 0.1 µM", "setting": "glucocorticoid receptors", "result": 72, "unit": "%"}
    ]}
  ]
}
